Patent publication US12083109B2, “Neurokinin antagonists and uses thereof” (California Institute of Technology, priority 2017, dated 2024)
“Also recorded” adds a separate entry of the source.

B1: shRNA-1: small hairpin RNA for mouse Tac2 gene (SEQ ID NO: 9, 10), expressed from AAV5-H1-shRNA-CMV-zsGreen (nucleic acid)
chain 1: CCGACGTGGTTGAAGAGAACACCGCTTCCTGTCACGGTGTTCTCTTCAACCACGTCTTTTTT
chain 2: AAAAAAGACGTGGTTGAAGAGAACACCGTGACAGGAAGCGGTGTTCTCTTCAACCACGTCGG
B2: shRNA-2: small hairpin RNA for mouse Tac2 gene (SEQ ID NO: 11, 12), expressed from AAV5-H1-shRNA-CMV-zsGreen (nucleic acid)
chain 1: CCGCCTCAACCCCATAGCAATTAGCTTCCTGTCACTAATTGCTATGGGGTTGAGGCTTTTTT
chain 2: AAAAAAGCCTCAACCCCATAGCAATTAGTGACAGGAAGCTAATTGCTATGGGGTTGAGGCGG

Key:
Nk3R = molecular target: T1, Nk3R (Mus musculus, UniProt P47937); assay: Looming disk assay (freezing, tail rattles, latency to orient), osanetant; format: in vivo; parameters: from tissue; host or cells: Living mice (wild-type C57Bl6/N males, Charles River); conditions: for SIS-induced increased tail rattling (looming disk assay) / SIS-induced persistent (post) freezing to looming disk: SIS mice; for SIS-induced increased tail rattling (looming disk assay): acute systemic osanetant; for acute (and thereby persistent) freezing to innate threatening stimulus (looming disk): osanetant injection into CeA
T1 sequence (P47937 1-452): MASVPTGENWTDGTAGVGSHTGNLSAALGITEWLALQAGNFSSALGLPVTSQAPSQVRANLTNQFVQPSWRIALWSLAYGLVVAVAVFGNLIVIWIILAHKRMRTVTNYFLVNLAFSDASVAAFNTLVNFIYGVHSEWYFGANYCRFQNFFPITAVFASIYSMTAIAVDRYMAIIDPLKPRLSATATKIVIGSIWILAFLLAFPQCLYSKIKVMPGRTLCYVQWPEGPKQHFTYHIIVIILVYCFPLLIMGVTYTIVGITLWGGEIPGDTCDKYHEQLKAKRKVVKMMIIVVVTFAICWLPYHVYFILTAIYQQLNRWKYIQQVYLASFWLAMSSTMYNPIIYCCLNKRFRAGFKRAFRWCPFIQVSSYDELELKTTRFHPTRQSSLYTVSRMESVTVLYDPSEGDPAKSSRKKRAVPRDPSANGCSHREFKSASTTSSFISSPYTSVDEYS
Description: Freezing behavior to presentation of an overhead looming disk proceeded as previously described (Kunwar et al., 2015; Yilmaz and Meister, 2013; incorporated by reference in their entirety). Briefly, mice were transported to a novel behavioral testing room. After 5 minutes of acclimation, mice were placed inside a novel, custom-built open top Plexiglas arena (48×48×30 cm) covered with a flat screen monitor placed directly above and with illumination provided by infrared LEDs (Marubeni). Mice were given a 5 minute baseline period in the arena, after which entry into the center of the arena triggered presentation of a single, 10 second overhead looming disk stimulus (comprised of a single looming disk presentation 0.5 seconds in duration, which was repeated 10 times with an inter-stimulus interval of 0.5 seconds). The stimulus was controlled by custom MATLAB code (M. Meister, Caltech) run on a dedicated computer in an adjacent room. Mice remained in the area for an additional 2 minutes before being transported back. Behavior was recorded using a video recorder attached to a laptop equipped with video capture software (Corel VideoStudio Pro). Acute freezing behavior to the looming disk (“during”) as well as in the 30 seconds following the last disk (“post”) were scored manually (Behavior Annotator, MATLAB) by an observer blind to environmental conditions.
Mice were administered the Nk3R antagonist osanetant (Axon Medchem, Axon 1533) either systemically or intra-brain region. Osanctant was dissolved in saline with 0.1% Tween 20 (vehicle). For systemic administration mice received an intraperitoneal (i.p.) injection (5 mg/kg) 20 minutes prior to behavioral testing. For microinfusions, guide cannulas were removed from mice and replaced with injector cannulas (Plastics One), which protruded 0.5 mm from the tip of the guide cannula. Injectors were attached to 5 μl Hamilton syringes with PE tubing (Plastics One) and mounted on a microinfusion pump (Harvard Apparatus) for controlled infusion of osanetant (0.3 μl vehicle with 375 ng dose per site injected over 6 minutes). For experiments using systemic administration of clozapine-N-oxide (CNO), CNO (Enzo Life Sciences-Biomol, BML-NS105-0005) was dissolved in saline (9 g/L NaCl) and injected (i.p.) at 5 mg/kg for hM4DREADD silencing or 2 mg/kg for hM3DREADD activation 20 minutes prior to behavioral testing. CNO was also administered chronically in drinking water (0.5 mg CNO/100 ml water).

Tac2 = assay: Looming disk assay, Tac2 shRNA knockdown; format: in vivo, mouse; conditions: SIS mice
Excerpt: Small hairpin RNA (shRNA) for the mouse Tac2 gene (NM_009312.2) were designed using the online designing tool siDirect 2.0 (http://sidirect2.mai.jp/) (Naito et al., 2009; incorporated by reference in its entirety).
8-16 week old mice were anesthetized with isoflurane and mounted in a stereotaxic apparatus (Kopf Instruments). Anesthesia was maintained throughout surgery at 1-1.5% isoflurane. The skull was exposed and small burr holes produced dorsal to each injection site using a stereotaxic mounted drill. Virus was backfilled into pulled fine glass capillaries (˜50 μm diameter at tip) and pressure injections of 300 nl were made bilaterally into either the dBNSTa (AP +0.25, ML ±0.85, DV −4.1), DMH (AP −1.3, ML±0.35, DV −5.6), or CeA (AP −1.4, ML ±2.6, DV −4.73) at a rate of 30nl per minute using a nanoliter injector (Nanoliter 2000, World Precision Instruments) controlled by an ultra microsyringe pump (Micro4, World Precision Instruments). Capillaries remained in place for 5 minutes following injections to allow for full diffusion of virus and to reduce backflow up the injection tract. Skin above the skull was then drawn together and sealed with GLUture (Zoetis). For bilateral cannula implantations, single or double guide cannulas (custom, Plastics One) aimed 0.5 mm above each region were implanted and held in place with dental cement (Parkell). Compatible dummy cannulas with a 0.5 mm protrusion at the tip were inserted to prevent cannula clogging. Directly following surgery, mice were given a subcutaneous injection of ketoprofen (2 mg/kg) and supplied with drinking water containing 400 mg/L sulphamethoxazole and 200 mg/L ibuprofen and monitored for 7 days. Dummies were replaced every 2-3 days to keep cannula tracts clean. All injections were subsequently verified histologically.
Freezing behavior to presentation of an overhead looming disk proceeded as previously described (Kunwar et al., 2015; Yilmaz and Meister, 2013; incorporated by reference in their entirety). Briefly, mice were transported to a novel behavioral testing room. […] Behavior was recorded using a video recorder attached to a laptop equipped with video capture software (Corel VideoStudio Pro). Acute freezing behavior to the looming disk (“during”) as well as in the 30 seconds following the last disk (“post”) were scored manually (Behavior Annotator, MATLAB) by an observer blind to environmental conditions.
To further investigate a role for local Tac2 release in mediating different effects of SIS, we asked next whether Tac2 synthesis played a role in each of the three brain regions studied, via targeted shRNAi-mediated knockdown of Tac2. […] Injections were histologically verified by zsGreen fluorescence. […]

Molecule	SIS-induced increased tail rattling (looming disk assay) (Nk3R)	SIS-induced increased tail rattling (looming disk assay) (Nk3R; listed as Osanetant)	SIS-induced persistent (post) freezing to looming disk (Nk3R; osanetant 5 mg/kg i.p. 20 min before test)	SIS-induced persistent (post) freezing to looming disk (Nk3R; osanetant 5 mg/kg i.p. 20 min before test, listed as Osanetant)	freezing during presentation of looming disk (acute) (Nk3R; osanetant 5 mg/kg i.p. 20 min before test, between groups)	persistent freezing to looming disk (Nk3R; osanetant daily during two-week isolation, tested off-drug)	acute (and thereby persistent) freezing to innate threatening stimulus (looming disk) (Nk3R)	acute (and thereby persistent) freezing to innate threatening stimulus (looming disk) (Nk3R; listed as Osanetant)	SIS-induced persistent freezing to looming disk (Nk3R; osanetant microinfusion into ACC or striatum)	persistent responses to looming stimulus (Nk3R; osanetant microinfusion into DMH)	SIS-induced persistent freezing to looming disk (Nk3R; osanetant microinfusion into dBNSTa, 375 ng per site, 20 min before test)	SIS-induced persistent freezing to looming disk (Nk3R; osanetant microinfusion into dBNSTa, 375 ng per site, 20 min before test, listed as Osanetant)	freezing to looming disk (acute, during stimulus) (Tac2; AAV shRNA in CeA)	acute (during) freezing to looming disk (Tac2; AAV shRNA in dBNSTa)	persistent (post) freezing to looming disk (Tac2; AAV shRNA in dBNSTa)
CC(=O)N(C)C1(c2ccccc2)CCN(CCC[C@]2(c3ccc(Cl)c(Cl)c3)CCCN(C(=O)c3ccccc3)C2)CC1 [osanetant, N-(1-{3-[(3R)-1-benzoyl-3-(3,4-dichlorophenyl)piperidin-3-yl]propyl}-4-phenylpiperidin-4-yl)-N-methylacetamide]	attenuated	blocked	blocked	attenuated	no significant differences	prevented	reduced	selectively blocked	failed to yield significant effects; also recorded: No significant effects	had no effect	selectively inhibited	selectively blocked			
B1													blocked	had no effect	blocked; also recorded: strongly reduced
B2														additionally reduced; also recorded: significantly reduced	
